Test results reported in ChEMBL document CHEMBL4376905, “Selective Estrogen Receptor Degraders for the Potential Treatment of Cancer” (ACS Med Chem Lett, 2020).
pIC50: −log10 of the molar value.

What was measured:
Estrogen receptor = target: T1, Estrogen receptor (Homo sapiens, UniProt P03372); assay: Induction of ERalpha protein degradation in human MCF7 cells assessed as reduction in ERalpha protein levels incubated for 24 hrs by In-cell western assay; type: cell-based; conditions: for DC50: mcf7, read-out: IC50 (the source's name)
T1 sequence (P03372 whole entry): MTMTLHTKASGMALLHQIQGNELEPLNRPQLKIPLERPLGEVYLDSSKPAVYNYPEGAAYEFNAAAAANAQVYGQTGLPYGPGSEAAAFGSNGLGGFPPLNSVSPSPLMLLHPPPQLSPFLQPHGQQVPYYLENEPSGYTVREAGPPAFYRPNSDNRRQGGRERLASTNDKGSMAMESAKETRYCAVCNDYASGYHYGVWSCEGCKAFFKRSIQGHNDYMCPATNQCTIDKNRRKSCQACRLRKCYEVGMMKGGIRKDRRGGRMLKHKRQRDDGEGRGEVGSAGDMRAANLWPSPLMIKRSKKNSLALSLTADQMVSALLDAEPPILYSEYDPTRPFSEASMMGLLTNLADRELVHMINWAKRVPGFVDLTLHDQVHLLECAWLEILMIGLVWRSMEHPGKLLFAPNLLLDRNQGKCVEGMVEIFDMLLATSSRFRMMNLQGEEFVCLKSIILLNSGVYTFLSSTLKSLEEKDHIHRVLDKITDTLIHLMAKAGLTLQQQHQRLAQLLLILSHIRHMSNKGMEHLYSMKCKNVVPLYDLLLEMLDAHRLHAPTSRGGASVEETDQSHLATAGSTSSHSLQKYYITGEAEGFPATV

MCF7 = assay: Antiproliferative activity against human MCF7 cells assessed as reduction in cell viability incubated for 6 days by WST1 dye based assay; type: functional; conditions: MCF7, 144 h
[1] = target: T2, Estrogen receptor (Homo sapiens) (UniProt P03372); assay: Displacement of [3H]estradiol from full length human ERalpha by competitive radiometric binding assay relative to estradiol
T2 sequence (whole entry): T1 sequence (P03372 whole entry)

O=C(NCCCCOc1ccc(C(=C2C3CC4CC(C3)CC2C4)c2ccc(O)cc2)cc1)C1CCCCC1
DC50 (Estrogen receptor): 0.4 nM

O=C(NCCCCOc1ccc(C(=C2C3CC4CC(C3)CC2C4)c2ccc(O)cc2)cc1)C12CC3CC(CC1C3)C2
pIC50 (Estrogen receptor): 8.70

O=C(NCCCCOc1ccc(C(=C2C3CC4CC(C3)CC2C4)c2ccc(O)cc2)cc1)[C@H]1C[C@@H]2C=C[C@H]1C2
pIC50 (MCF7): 8.05 | RBA [1]: 37%

O=C(NCCCOc1ccc(C(=C2C3CC4CC(C3)CC2C4)c2ccc(O)cc2)cc1)C12CC3CC(CC(C3)C1)C2
DC50 (Estrogen receptor): 3 nM
